3 compounds from patent publication US20150057180A1, “Methods and Kits for Analyzing Biomarkers in a Signal Transduction Pathway” (BioScale, Inc., priority 2012, published 2015) can be followed below.

The test system of experiment [1] is pJNK. The experiment can be described thus: AMMP pJNK assay, A431 cells.
Procedure: (§1) TPER was supplemented with phosphatase and protease inhibitors (ThermoFisher/Pierce) as described by the manufacturer. The cells were lysed by pipetting the TPER on the adhesion cell layer, or onto the cell pellet in the case of Jurkat cells. Cell lysates were collected into conical tubes, placed on ice, and vortexed every 5 minutes for a total of 20 minutes before aliquoting and freezing on dry ice. A standard BCA protein assay was used to determine total protein concentration of the lysates.
(§2) AMMP Assay Design: These studies were designed using AMMP® (Acoustic Membrane Microparticle Assay) as run on the ViBE® workstation (BioScale). Assays were constructed so that strepavidin coated magnetic microparticles were loaded with analyte-specific biotinylated antibody and the solution phase sandwich partner antibody was conjugated with fluorescein. The complex of bead-analyte and fluorescien-labeled antibody was detected by the anti-fluorescein antibody-coated acoustic membrane of the VIBE.
(§3) Assay Set-Up: Cell lysates were thawed on ice then centrifuged at 14,000 RPM. Forty microliters of diluted cell lysates were pipetted in to the appropriate well of each plate with forty microliters of sample diluent. Also to each well, a total of forty microliters of a mixture of 1.5×10^5 magnetic beads and 200 ng/ml of fluorescein labeled detector antibody were added. Separate wells were loaded with beads and lysates alone to serve as negative controls. The plates were loaded on the VIBE workstation (BioScale Inc., Lexington, Mass.) and incubated for 4 hours prior to analysis.
Experiment [2] relates to pHER3. The experiment can be described thus: AMMP pHER3 assay, A431 cells. The conditions noted are these: for EGF stimulated phosphorylation of HER3: inhibitor (Afatinib 13 nM, Gefitinib 37 nM or Neratinib 92 nM) 2 hours prior to EGF 100 ng/ml 10 minutes.
Source text: as §2, §3
The test system of experiment [3] is pERK1/2. Nature of the experiment: AMMP pERK1/2 assay, A431 cells.
Source text: as §2, §3
Experiment [4] concerns pHER3. Nature of the experiment: AMMP pHER3 assay, MCF-7 cells.
Procedure: as §1, §2, §3
The test system of experiment [5] is pAKT1. Nature of the experiment: AMMP pAKT1 assay, A431 cells. The conditions noted are these: inhibitor (Neratinib 92 nM) 2 hours prior to EGF 100 ng/ml 10 minutes.
Procedure: as §1, §2
(§4) Assay Set-Up: Cell lysates were thawed on ice then centrifuged at 14,000 RPM. Forty microliters of diluted cell lysates were pipetted in to the appropriate well of each plate with forty microliters of sample diluent. Also to each well, a total of forty microliters of a mixture of 1.5×10^5 magnetic beads and 200 ng/ml of fluorescein labeled detector antibody were added. […]
The subject of experiment [6] is pMEK1. Nature of the experiment: AMMP pMEK1 assay, A431 cells.
Source text: as §2, §3
Experiment [7] relates to pAKT1. The experiment can be described thus: AMMP pAKT1 assay, MCF-7 cells.
Procedure: as §1, §2, §4
In experiment [8] the test system is pp38. Nature of the experiment: AMMP pp38 assay, MCF-7 cells.
Procedure: as §1, §2, §4
Experiment [9] concerns pMEK1. Nature of the experiment: AMMP pMEK1 assay, MCF-7 cells.
Source text: as §2, §3
For experiment [10], the system named is pp38. The experiment can be described thus: AMMP pp38 assay, A431 cells.
Procedure: as §1, §2, §4
Experiment [11] has as its system pERK1/2. The experiment can be described thus: AMMP pERK1/2 assay, MCF-7 cells. The conditions noted are these: for EGF stimulated phosphorylation of ERK1/2: inhibitor (Afatinib 13 nM, Gefitinib 37 nM or Neratinib 92 nM) 2 hours prior to EGF 100 ng/ml 10 minutes.
Source text: as §2, §3
In experiment [12] the test system is pJNK. The experiment can be described thus: AMMP pJNK assay, MCF-7 cells. In kind it is cell-based, human. The conditions noted are these: EGF 100 ng/ml for 10 minutes vs no treatment.
Procedure: as §1, §2, §4
For another experiment, the system named is phosphorylated p38. Nature of the experiment: AMMP phospho-p38 assay, A431 cell lysates (Example 5). In kind it is cell-based, human. The conditions noted are these: EGF-stimulated A431 cells compared to unstimulated A431 cells (FIG. 38). As for the experimental part:
For the sample preparation from A431 cells, the following methods were used. Human epidermoid carcinoma cells A431 (American Type Culture Collection (ATCC), Manassas, Va.; ATCC Catalog No. CRL-1555) were grown to approximately 80% confluence in T75 flasks according to standard cell culture techniques. […] Negative control cells were incubated with serum free medium without stimulant, also for 10 minutes.
Additional scraping was required to release the cells from the plastic. The resulting cell suspension was incubated for approximately 15 minutes on ice with vortexing every five minutes for effective cell lysis. Phosphatase and protease inhibitors (HALT, Thermo Fisher (Pierce)) were included in the detergent cell treatment preparation. Cell lysates were aliquoted and snap frozen on dry ice, and then transferred to a −80° C. freezer until analysis. […]
Cell lysate samples were prepared for the assays by thawing them on ice then clarifying by centrifugation in a microcentrifuge at 14,000 RPM for 10 minutes. […] Negative controls containing the bead only with the samples (no fluoresceinated antibody) were run and the ViBE response was subtracted from the sample signal readings to determine the specific assay signal.

Where [13] appears, read: inhibitor (Neratinib 92 nM) 2 hours prior to EGF 100 ng/ml 10 minutes.
Where [14] appears, read: inhibitor (Afatinib 13 nM, Gefitinib 37 nM or Neratinib 92 nM) 2 hours prior to EGF 100 ng/ml 10 minutes, listed as neratinib.
[15] abbreviates: EGF 100 ng/ml for 10 minutes vs no treatment.

Entries after “also recorded” stand apart in the source; their conditions may differ.

As for `CCOc1cc2ncc(C#N)c(Nc3ccc(OCc4ccccn4)c(Cl)c3)c2cc1NC(=O)/C=C/CN(C)C` [Neratinib], the “EGF stimulated phosphorylation of JNK” value in the experiment on pJNK [1] (setting [13]) is given as “largely unaffected”. Moreover, the entries for the “EGF stimulated phosphorylation of HER3” value with pHER3 [2], in the experiment with pHER3 [2] (listed as neratinib) and in the experiment with pHER3 [4] (setting [13]) were “largely inhibit”, “highly effective” and “only partially inhibited”, respectively. Also, the “EGF stimulated phosphorylation of ERK1/2” value is “no such effect; also recorded: much less than expected” with pERK1/2 [3] (setting [14]) and “inhibitory effects” with pERK1/2 [11]. Also, the “EGF stimulated phosphorylation of AKT1” value in the experiment on pAKT1 [5] is on record as “largely unaffected”; with pAKT1 [7] (setting [13]) it was “slight loss in phosphorylation”. The “EGF stimulated phosphorylation of MEK1” value in the experiment on pMEK1 [6] (setting [14]) is “no such effect; also recorded: much less than expected”; with pMEK1 [9] (setting [13]), “inhibitory effects; also recorded: partially inhibited”. Moreover, the “EGF stimulated phosphorylation of p38” value is reported as “slight loss in phosphorylation” with pp38 [8] (setting [13]) and “largely unaffected” in the experiment on pp38 [10] (inhibitor (Afatinib 13 nM, Gefitinib 37 nM or Neratinib 92 nM) 2 hours prior to EGF 100 ng/ml 10 minutes).

On to `COc1cc2ncnc(Nc3ccc(F)c(Cl)c3)c2cc1OCCCN1CCOCC1` [gefitinib, Gefitinib], for which the “EGF stimulated phosphorylation of ERK1/2” value in the experiment with pERK1/2 [11] is “inhibited”.

In the case of epidermal growth factor [EGF], the “phosphorylation of JNK on EGF stimulation” value in the experiment with pJNK [1] (setting [15]) and in the experiment with pJNK [12] was “no change in JNK; also recorded: No phosphorylation of JNK” each time. The “phosphorylation of HER3 on EGF stimulation” value with pHER3 [2] (setting [15]) is recorded as “increased with EGF stimulation; also recorded: high even in non-treated A431 cells”; with pHER3 [4] (setting [15]), “little phosphorylation was observed; also recorded: resulted in phosphorylation”. For the same compound, the “phosphorylation of ERK1/2 on EGF stimulation” value in the experiment on pERK1/2 [3] (setting [15]) is “predominated the signaling pathway; also recorded: easily detected; also recorded: led to phosphorylation”; in the experiment with pERK1/2 [11] (setting [15]), “detected phosphorylation of ERK1/2; also recorded: detected to a lesser degree; also recorded: resulted in phosphorylation”. Also, the entries for the “phosphorylation of MEK1 on EGF stimulation” value in the experiment with pMEK1 [6] (setting [15]) and in the experiment on pMEK1 [9] (setting [15]) were “Strong phosphorylation of MEK1; also recorded: led to phosphorylation” and “modest phosphorylation of MEK1; also recorded: resulted in phosphorylation”, respectively. Further, the “phosphorylation of AKT1 on EGF stimulation” value in the experiment on pAKT1 [7] (setting [15]) was “small amount of AKT1 phosphorylation”. The “phosphorylation of p38 on EGF stimulation” value with pp38 [8] (setting [15]) is “moderate phosphorylation of p38”; with pp38 [10] (setting [15]), “led to phosphorylation”. Moreover, the “amount of phospho-p38” value in the experiment on phosphorylated p38 was “dramatic increase”.
